Data from publication PMC7397076 (Molecules, 2020).
Values after ≈ are worked out from the molar mass of the structure shown. Read-outs that look alike come from different tables or passages of the source.

Key:
[1] = tested on: Mycobacterium tuberculosis H37Rv; assay: Microplate Alamar Blue Assay (MABA), antitubercular activity; type: cell-based
InhA reductase enzyme = InhA reductase enzyme (Mycobacterium tuberculosis, UniProt P9WGR1); assay: In vitro InhA enzyme inhibition (NADH oxidation at 340 nm)
Sequence of InhA reductase enzyme (P9WGR1 whole entry, looked up): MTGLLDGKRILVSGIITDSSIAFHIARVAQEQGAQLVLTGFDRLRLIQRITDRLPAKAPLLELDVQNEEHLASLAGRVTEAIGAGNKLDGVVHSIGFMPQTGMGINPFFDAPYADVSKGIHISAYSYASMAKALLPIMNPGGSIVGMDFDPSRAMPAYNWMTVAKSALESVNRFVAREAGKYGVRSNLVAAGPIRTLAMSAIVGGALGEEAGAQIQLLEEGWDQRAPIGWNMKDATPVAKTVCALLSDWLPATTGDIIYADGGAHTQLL

Vero cell line = assay: Cytotoxicity test, MTT assay; type: cell-based, African green monkey; conditions: Chlorocebus sabaeus, 24 h, Vero cells, 24 h exposure, 0.1–200 µg/mL, read-out: Vero Cell Line IC50 ± SEM
[2] = Mycobacterium tuberculosis, H37RV, M. tuberculosis H37Rv, MABA, lowest concentration giving ≥90% reduction in fluorescence, read-out: MIC
[3] = M. tuberculosis H37Rv, MABA, lowest concentration giving ≥90% reduction in fluorescence

Compound | MIC [1, 2] [µg/mL] | IC50 (InhA reductase enzyme) [µM] | melting point [°C] | MIC [1, 3] [µg/mL] | IC50 (Vero cell line) [µg/mL] | MIC ([1]; Mycobacterium tuberculosis, H37RV) [µg/mL]
O=C(N/N=C/c1ccc(OCc2ccccc2)cc1)c1ccc(Oc2ccccc2)cc1 [Compound 8f, (E)-N′-[4-(Benzyloxy)benzylidene]-4-phenoxybenzohydrazide] | 22.6 (≈ 53.5 µM) | 29.9 | 228 to 231 | – | – | –
NNC(=O)c1ccncc1 [INH, isoniazid, reference compound] | 0.2 (≈ 1.46 µM) | – | – | 0.20 (≈ 1.46 µM) | – | –
c1ccc(Oc2ccc(-c3nnc(-c4cccs4)o3)cc2)cc1 [Compound 6k, 2-(4-Phenoxyphenyl)-5-(thiophen-2-yl)-1,3,4-oxadiazole] | – | 78.6 | 139 to 141 | – | 68.6 ± 1.19 (≈ 214 µM) | –
O=C(N/N=C/c1ccncc1)c1ccc(Oc2ccccc2)cc1 [Compound 8i, (E)-4-Phenoxy-N′-(pyridin-4-ylmethylene)benzohydrazide] | 6.82 (≈ 21.5 µM) | 21.4 | 175 to 177 | – | – | –
Oc1cc(Cl)ccc1Oc1ccc(Cl)cc1Cl [Triclosan, triclosan, reference compound] | – | – | – | 10.00 (≈ 34.5 µM) | – | 10 (≈ 34.5 µM)
c1ccc(Oc2ccc(-c3nnc(-c4ccncc4)o3)cc2)cc1 [Compound 6i, 2-(4-Phenoxyphenyl)-5-(pyridin-4-yl)-1,3,4-oxadiazole] | – | 11.7 | 125 to 127 | – | > 60 | –
c1ccc(COc2ccc(-c3nnc(-c4ccc(Oc5ccccc5)cc4)o3)cc2)cc1 [Compound 6f, 2-(4-(Benzyloxy)phenyl)-5-(4-phenoxyphenyl)-1,3,4-oxadiazole] | 8.23 (≈ 19.6 µM) | 41.2 | 226 to 229 | – | – | –
c1ccc(Oc2ccc(-c3nnc(-c4cccnc4)o3)cc2)cc1 [Compound 6h, 2-(4-Phenoxyphenyl)-5-(pyridin-3-yl)-1,3,4-oxadiazole] | – | 5.08 | 143 to 144 | – | > 60 | –
c1ccc(Oc2ccc(-c3nnc(-c4ccc(Oc5ccccc5)cc4)o3)cc2)cc1 [Compound 6l, 2,5-bis(4-Phenoxyphenyl)-1,3,4-oxadiazole] | 0.61 to 1.69 (≈ 1.5 to 4.16 µM) | 5.63 | 232 to 234 | 1.17 (≈ 2.88 µM) | > 60 | –
O=C(N/N=C/c1ccco1)c1ccc(Oc2ccccc2)cc1 [Compound 8j, (E)-N′-(Furan-2-ylmethylene)-4-phenoxybenzohydrazide] | 6.35 (≈ 20.7 µM) | 18.4 | – | – | – | –
c1ccc(Oc2ccc(-c3nnc(-c4ccccc4)o3)cc2)cc1 [Compound 6a, 2-(4-Phenoxyphenyl)-5-phenyl-1,3,4-oxadiazole] | 2.74 (≈ 8.72 µM) | > 100 | 233 to 235 | – | – | –
COc1ccc(-c2nnc(-c3ccc(Oc4ccccc4)cc3)o2)cc1 [Compound 6c, 2-(4-Methoxyphenyl)-5-(4-phenoxyphenyl)-1,3,4-oxadiazole] | 39 (≈ 113 µM) | > 100 | 226 to 228 | – | – | –
COc1ccc(/C=N/NC(=O)c2ccc(Oc3ccccc3)cc2)cc1 [Compound 8c, (E)-N′-(4-Methoxybenzylidene)-4-phenoxybenzohydrazide] | 20.7 (≈ 59.7 µM) | 75.5 | 233 to 235 | – | – | –
O=C(N/N=C/c1cccs1)c1ccc(Oc2ccccc2)cc1 [Compound 8k, (E)-4-Phenoxy-N′-(thiophen-2-ylmethylene)benzohydrazide] | – | 5.61 | 182 to 183 | – | > 60 | –
O=C(N/N=C/c1cccnc1)c1ccc(Oc2ccccc2)cc1 [Compound 8h, (E)-4-Phenoxy-N′-(pyridin-3-ylmethylene)benzohydrazide] | 6.96 (≈ 21.9 µM) | 26.5 | 149 to 151 | – | – | –
O=[N+]([O-])c1ccc(-c2nnc(-c3ccc(Oc4ccccc4)cc3)o2)cc1 [Compound 6d, 2-(4-Nitrophenyl)-5-(4-phenoxyphenyl)-1,3,4-oxadiazole] | 15.2 (≈ 42.2 µM) | 68.4 | 226 to 228 | – | – | –
c1ccc(Oc2ccc(-c3nnc(-c4cccc5ccccc45)o3)cc2)cc1 [Compound 6g, 2-(Naphthalen-1-yl)-5-(4-phenoxyphenyl)-1,3,4-oxadiazole] | 12.2 (≈ 33.6 µM) | 33.8 | 173 to 175 | – | – | –
O=C(N/N=C/c1ccccc1)c1ccc(Oc2ccccc2)cc1 [Compound 8a, (E)-N′-Benzylidene-4-phenoxybenzohydrazide] | 34.5 (≈ 109 µM) | 73.2 | 163 to 165 | – | – | –
COc1cc(-c2nnc(-c3ccc(Oc4ccccc4)cc3)o2)cc(OC)c1OC [Compound 6b, 2-(4-Phenoxyphenyl)-5-(3,4,5-trimethoxyphenyl)-1,3,4-oxadiazole] | 34.6 (≈ 85.7 µM) | > 100 | 250 to 253 | – | – | –
Clc1ccc(-c2nnc(-c3ccc(Oc4ccccc4)cc3)o2)cc1 [Compound 6e, 2-(4-Chlorophenyl)-5-(4-phenoxyphenyl)-1,3,4-oxadiazole] | 15.9 (≈ 45.6 µM) | 64.5 | – | – | – | –
NNC(=O)c1ccc(Oc2ccccc2)cc1 [Compound 3, 4-Phenoxybenzohydrazide] | 0.61 to 1.69 (≈ 2.67 to 7.4 µM) | 3.43 | – | 0.86 (≈ 3.77 µM) | > 60 | –
O=C(N/N=C/c1ccc(Cl)cc1)c1ccc(Oc2ccccc2)cc1 [Compound 8e, (E)-N′-(4-Chlorobenzylidene)-4-phenoxybenzohydrazide] | 2.89 (≈ 8.24 µM) | 7.46 | 184 to 186 | – | – | –
c1ccc(Oc2ccc(-c3nnco3)cc2)cc1 [Compound 4, 2-(4-Phenoxyphenyl)-1,3,4-oxadiazole] | 0.61 to 1.69 (≈ 2.56 to 7.09 µM) | 3.28 | – | 0.61 (≈ 2.56 µM) | > 60 | –
O=C(N/N=C/c1cccc2ccccc12)c1ccc(Oc2ccccc2)cc1 [Compound 8g, (E)-N′-(Naphthalen-1-ylmethylene)-4-phenoxybenzohydrazide] | – | 4.23 | 193 to 195 | – | > 60 | –
c1ccc(Oc2ccc(-c3nnc(-c4ccco4)o3)cc2)cc1 [Compound 6j, 2-(Furan-2-yl)-5-(4-phenoxyphenyl)-1,3,4-oxadiazole] | 11.1 (≈ 36.5 µM) | 51.4 | 129 to 132 | – | – | –
COc1cc(/C=N/NC(=O)c2ccc(Oc3ccccc3)cc2)cc(OC)c1OC [Compound 8b, (E)-4-Phenoxy-N′-(3,4,5-trimethoxybenzylidene)benzohydrazide] | 50.2 (≈ 124 µM) | > 100 | 191 to 192 | – | – | –
